One test relates to NF-κB. Briefly: NF-κB transcriptional activity in TNFα-induced HeLa cells. The conditions noted are these: Homo sapiens, 1 h pre-treatment, then 4 h of 20 ng/mL TNFα, average of three experiments, read-out: IC50, inhibition of NF-κB transcriptional activity. Format: cell-based. The procedure: The compounds were tested on HeLa (adenocarcinoma) cells to quantify their ability to inhibit NF-κB transcriptional activity. NF-κB activity was induced in HeLa cells by TNFα, and then the compounds were added to inhibit the induced NF-κB activity. Half maximal inhibitory concentrations (IC50) of several compounds, namely Compound 1, Compound 2 and Compound 12, were determined by dose response studies.
HeLa cells were plated in a 12-well plate (200,000 cells/well) and cultured in Eagle's Minimal Essential medium (EMEM) from Lonza supplemented with 10% heat-inactivated fetal bovine serum (Invitrogen) and 50 μg/mL penicillin/streptomycin (Invitrogen), and were left overnight to attach. Cells were pre-treated with serial diluted (started at 30 µM; 1:3 dilution) compounds for 1 h and then exposed to 20 ng/mL TNFα (Peprotech) for 4 h in serum free media. After the treatment, the cells were washed with PBS (Invitrogen), and lysed with RIPA buffer (Themo Scientific). The transcription activity of NF-κB in the cells was measured by Chemiluminescent Transcription Factor Assay kit (Thermo Scientific Catalog #89859), according to the manufacturer's instruction. Briefly, 1.5 mg/mL of RIPA lysed whole cell extract from each treatment were incubated in a 96-well plate bound with NF-κB biotinylated-consensus sequence. The active NF-κB transcription factor bound to the consensus sequence was incubated with NF-κB p65 primary antibody and then with a secondary HRP-conjugated antibody. A chemiluminescent substrate was added to the wells and the resulting signal was detected using a luminometer. Three separate experiments were analyzed for each concentration of the IC50 curves. XLFit model 205 was used to calculate IC50 curves.
Inhibition of NF-κB transcriptional activity was measured by serial dilutions of Compound 1, Compound 2 and Compound 12 after 1 h of compound pre-treatment followed by 4 h of 20 ng/mL TNFα exposure. Three independent experiments were scored for each concentration, with the average being presented here.

In test [1] the test system is anti-collagen antibody induced arthritis. Put plainly: Anti-collagen antibody induced mouse model of rheumatoid arthritis (CAIA). In kind it is in vivo, mice. The procedure:
Twenty-four (24) male Balb/c mice, aged 6 to 8 weeks were used. […] On study Day 0 (study commencement), all mice were subjected to a 2 mg intravenous injection of ArthritoMAb™ antibody cocktail (MD Biosciences # S1203001) followed by an intraperitoneal injection of LPS ([…]) on study Day 3. […] Treatments were administered once daily on days 4, 6, 8 and 10 for all groups, except where dosing vacations applied. If an animal's weight dropped below 87% of its day 0 starting weight, the animal was not dosed until it gained weight equivalent to 90% or more of day 0 weight.
Arthritis development, clinical signs and body weights were monitored in all mice on study days 0, 3-8, 10 and 12. Observations included changes in skin, fur, eyes, mucous membranes, occurrence of secretions and excretions (e.g., diarrhea) and autonomic activity (e.g., lacrimation, salivation, piloerection, pupil size, unusual respiratory pattern). All paws (front left and right, and rear left and right) of each animal were examined for signs of arthritogenic responses prior to arthritis induction and test item or control item administration on study Day 0 and subsequently on study Days 3-8, 10 and 12 (study termination). Arthritis reactions were scored and recorded according to a 0-4 scale in ascending order of severity, as shown Table 5 below. Paw thickness was also measured using a dial caliper (Kroeplin, Munich, Germany).
The dose administered was calculated based on the assumption that the animals weighed, on average, 20 g. […] Vehicle for the vehicle control group was prepared by dissolving 0.6 g Pluronic and 0.6 g PVP in 100 mL distilled deionised water. The MAb stock solution (10 mg/mL) was supplied by MD Biosciences, Division of Morwell Diagnostics GmbH. LPS was diluted with PBS to achieve the appropriate concentration. Thorough vortexing was required just prior to its injection. […] A fixed volume of 200 μL was administered to each mouse.
Evaluation was primarily based on the mean values for arthritis scoring and paw thickness measurements. Where appropriate, analysis of the data by ANOVA with Tukey post hoc analysis was applied to determine significance of treatment effects.

Structures are written as SMILES.

The IC50 is the concentration that inhibits the measured activity by half.

`CC(C)(C)C(=O)NNC(=O)/C=C\n1cnc(-c2cc(C(F)(F)F)cc(C(F)(F)F)c2)n1` [Compound 1, (Z)-3-(3-(3,5-bis(trifluoromethyl)phenyl)-1H-1,2,4-triazol-1-yl)-N′-pivaloylacrylohydrazide]: the IC50 in the test on NF-κB was 1.59 µM.

For the compound `O=C(/C=C\n1cnc(-c2cc(C(F)(F)F)cc(C(F)(F)F)c2)n1)NNC(=O)CN1CCOCC1` [Compound 2, (Z)-3-(3-(3,5-bis(trifluoromethyl)phenyl)-1H-1,2,4-triazol-1-yl)-N′-(2-morpholinoacetyl)acrylohydrazide], the “total arthritis score compared to vehicle” value in test [1] (4 mg/kg orally, days 6-12) is listed as “significantly reduced total arthritis scores”; in test [1] (7.5 mg/kg orally, days 5-12) it was “significantly reduced total arthritis scores”. Also, the “anti-arthritic activity (mean arthritis scores, paw thickness)” value in test [1] (7.5 mg/kg or 4 mg/kg orally) is given as “significant anti-arthritic activity”. For the same compound, in test [1] (7.5 mg/kg or 4 mg/kg orally, days 5-12), the “rear paw arthritis score compared to vehicle” value is recorded as “significantly reduced rear paw arthritis scores”. Also, the IC50 in the test on NF-κB was found to be 1.22 µM.

Values taken from patent US10617677B2, “Nuclear transport modulators and uses thereof” (Biogen MA Inc., priority 2012, dated 2020).
